The values that follow are results of earlier work, collected in patent EP0548940B1, “Insecticidal compositions” (SUMITOMO CHEMICAL COMPANY LIMITED, priority 1991, dated 1993).

The conditions of the series: at 25°C, water-diluted solution.

As to `OB(O)O` [Boric acid], the pKa value entry is given as “Boric acid 4.8 (9.24)”.

Consider `O=C(O)CCCCCCCC(=O)O` [Azelaic acid], for which the pKa value entry is on record as “Azelaic acid 4.8 (4.39)”.
